In patent EP0377642B1, “HERBICIDES FOR WEED CONTROL IN RICE” (E.I. DU PONT DE NEMOURS AND COMPANY, priority 1987, dated 1989):

Tests used:
Assay type in all cases: in vivo
MV = experiment: Herbicidal efficacy in relation to application timing in Indonesia (Table 5); details: 5 WAT
From the text: (§1) Methyl 2-[[[[(4-methoxy-6-methyl-1,3,5-triazin-2-yl)amino]carbonyl]amino]sulfonyl]benzoate (Compound 1) and mixtures thereof with other compounds were applied as a spray (using a hand sprayer) to rice (either transplanted or direct seeded) in several rice growing areas in Southeast Asia and in the U.S. Tables 1-28 contain the results of these tests and clearly exemplify the utility of this invention. The details of each application are included in the appropriate table. [drawing 2]

rice [1] = experiment: as above
From the text: as §1

Salvinia molesta = experiment: Herbicidal efficacy in Indonesia, applied 2 weeks after transplanting (Table 6)
From the text: as §1

rice [2] = experiment: as above; details: 2 weeks after application
From the text: as §1

Eclipta alba = experiment: Herbicidal efficacy in United States (Table 16); details: 57 days after application
From the text: as §1

Sesbania exaltata = experiment: Herbicidal efficacy in United States (Table 16); details: 57 days after application
From the text: as §1

rice [3] = experiment: Herbicidal efficacy in United States (Table 16); details: 57 days after application
From the text: as §1

COC(=O)c1ccccc1S(=O)(=O)NC(=O)Nc1nc(C)nc(OC)n1 [Compound 1, Methyl 2-[[[[(4-methoxy-6-methyl-1,3,5-triazin-2-yl)amino]carbonyl]amino]sulfonyl]benzoate]
% CONTROL MV (MV; 3 GAI/HA, evaluation 3): 100%
% CONTROL MV (MV; 4 GAI/HA, evaluation 1): 80%
% CONTROL MV (MV; 4 GAI/HA, evaluation 2): 100%
% CONTROL MV (MV; 4 GAI/HA, evaluation 3): 100%
% CONTROL MV (MV; 6 GAI/HA, evaluation 1): 80%
% CONTROL MV (MV; 6 GAI/HA, evaluation 2): 100%
% CONTROL MV (MV; 6 GAI/HA, evaluation 3): 100%
% CONTROL MV (MV; 8 GAI/HA, evaluation 1): 100%
% CONTROL MV (MV; 8 GAI/HA, evaluation 2): 100%
% CONTROL MV (MV; 8 GAI/HA, evaluation 3): 100%
% CONTROL RICE (rice [1]; 3 WAT, 2 GAI/HA, evaluation 1): 0%
% CONTROL RICE (rice [1]; 3 WAT, 2 GAI/HA, evaluation 2): 0%
% CONTROL RICE (rice [1]; 3 WAT, 2 GAI/HA, evaluation 3): 0%
% CONTROL RICE (rice [1]; 3 WAT, 3 GAI/HA, evaluation 1): 0%
% CONTROL RICE (rice [1]; 3 WAT, 3 GAI/HA, evaluation 2): 0%
% CONTROL RICE (rice [1]; 3 WAT, 3 GAI/HA, evaluation 3): 0%
% CONTROL RICE (rice [1]; 3 WAT, 4 GAI/HA, evaluation 1): 0%
% CONTROL RICE (rice [1]; 3 WAT, 4 GAI/HA, evaluation 2): 0%
% CONTROL RICE (rice [1]; 3 WAT, 4 GAI/HA, evaluation 3): 0%
% CONTROL RICE (rice [1]; 3 WAT, 6 GAI/HA, evaluation 1): 0%
% CONTROL RICE (rice [1]; 3 WAT, 6 GAI/HA, evaluation 2): 0%
% CONTROL RICE (rice [1]; 3 WAT, 6 GAI/HA, evaluation 3): 0%
% CONTROL RICE (rice [1]; 3 WAT, 8 GAI/HA, evaluation 1): 0%
% CONTROL RICE (rice [1]; 3 WAT, 8 GAI/HA, evaluation 2): 0%
% CONTROL RICE (rice [1]; 3 WAT, 8 GAI/HA, evaluation 3): 0%
% CONTROL RICE (rice [1]; 4 WAT, 2 GAI/HA, evaluation 1): 0%
% CONTROL RICE (rice [1]; 4 WAT, 2 GAI/HA, evaluation 2): 0%
% CONTROL RICE (rice [1]; 4 WAT, 2 GAI/HA, evaluation 3): 0%
% CONTROL RICE (rice [1]; 4 WAT, 3 GAI/HA, evaluation 1): 0%
% CONTROL RICE (rice [1]; 4 WAT, 3 GAI/HA, evaluation 2): 10%
% CONTROL RICE (rice [1]; 4 WAT, 3 GAI/HA, evaluation 3): 0%
% CONTROL RICE (rice [1]; 4 WAT, 4 GAI/HA, evaluation 1): 20%
% CONTROL RICE (rice [1]; 4 WAT, 4 GAI/HA, evaluation 2): 20%
% CONTROL RICE (rice [1]; 4 WAT, 4 GAI/HA, evaluation 3): 0%
% CONTROL RICE (rice [1]; 4 WAT, 6 GAI/HA, evaluation 1): 20%
% CONTROL RICE (rice [1]; 4 WAT, 6 GAI/HA, evaluation 2): 20%
% CONTROL RICE (rice [1]; 4 WAT, 6 GAI/HA, evaluation 3): 0%
% CONTROL RICE (rice [1]; 4 WAT, 8 GAI/HA, evaluation 1): 20%
% CONTROL RICE (rice [1]; 4 WAT, 8 GAI/HA, evaluation 2): 20%
% CONTROL RICE (rice [1]; 4 WAT, 8 GAI/HA, evaluation 3): 0%
% CONTROL RICE (rice [1]; 5 WAT, 2 GAI/HA, evaluation 1): 10%
% CONTROL RICE (rice [1]; 5 WAT, 2 GAI/HA, evaluation 2): 0%
% CONTROL RICE (rice [1]; 5 WAT, 2 GAI/HA, evaluation 3): 0%
% CONTROL RICE (rice [1]; 5 WAT, 3 GAI/HA, evaluation 1): 10%
% CONTROL RICE (rice [1]; 5 WAT, 3 GAI/HA, evaluation 2): 0%
% CONTROL RICE (rice [1]; 5 WAT, 3 GAI/HA, evaluation 3): 0%
% CONTROL RICE (rice [1]; 5 WAT, 4 GAI/HA, evaluation 1): 30%
% CONTROL RICE (rice [1]; 5 WAT, 4 GAI/HA, evaluation 2): 0%
% CONTROL RICE (rice [1]; 5 WAT, 4 GAI/HA, evaluation 3): 0%
% CONTROL RICE (rice [1]; 5 WAT, 6 GAI/HA, evaluation 1): 0%
% CONTROL RICE (rice [1]; 5 WAT, 6 GAI/HA, evaluation 2): 0%
% CONTROL RICE (rice [1]; 5 WAT, 6 GAI/HA, evaluation 3): 0%
% CONTROL RICE (rice [1]; 5 WAT, 8 GAI/HA, evaluation 1): 30%
% CONTROL RICE (rice [1]; 5 WAT, 8 GAI/HA, evaluation 2): 10%
% CONTROL RICE (rice [1]; 5 WAT, 8 GAI/HA, evaluation 3): 0%
% CONTROL SM (Salvinia molesta; 3 GAI/HA, 2 weeks after application): 30%
% CONTROL SM (Salvinia molesta; 3 GAI/HA, 5 weeks after application): 70%
% CONTROL SM (Salvinia molesta; 3 GAI/HA, 7 weeks after application): 80%
% CONTROL SM (Salvinia molesta; 4 GAI/HA, 2 weeks after application): 40%
% CONTROL SM (Salvinia molesta; 4 GAI/HA, 5 weeks after application): 70%
% CONTROL SM (Salvinia molesta; 4 GAI/HA, 7 weeks after application): 80%
% CONTROL SM (Salvinia molesta; 6 GAI/HA, 2 weeks after application): 30%
% CONTROL SM (Salvinia molesta; 6 GAI/HA, 5 weeks after application): 90%
% CONTROL SM (Salvinia molesta; 6 GAI/HA, 7 weeks after application): 90%
% CONTROL SM (Salvinia molesta; 8 GAI/HA, 2 weeks after application): 40%
% CONTROL SM (Salvinia molesta; 8 GAI/HA, 5 weeks after application): 80%
% CONTROL SM (Salvinia molesta; 8 GAI/HA, 7 weeks after application): 90%
% CONTROL RICE (rice [2]; 3 GAI/HA): 10%
% CONTROL RICE (rice [2]; 4 GAI/HA): 10%
% CONTROL RICE (rice [2]; 6 GAI/HA): 10%
% CONTROL RICE (rice [2]; 8 GAI/HA): 10%
% CONTROL OR INJURY EA (Eclipta alba; 7 GAI/HA): 97%
% CONTROL OR INJURY EA (Eclipta alba; 14 GAI/HA): 98%
% CONTROL OR INJURY EA (Eclipta alba; 21 GAI/HA): 98%
% CONTROL OR INJURY SE (Sesbania exaltata; 7 GAI/HA): 97%
% CONTROL OR INJURY SE (Sesbania exaltata; 14 GAI/HA): 98%
% CONTROL OR INJURY SE (Sesbania exaltata; 21 GAI/HA): 98%
% CONTROL OR INJURY RICE (rice [3]; 7 GAI/HA): 3%
% CONTROL OR INJURY RICE (rice [3]; 14 GAI/HA): 10%
% CONTROL OR INJURY RICE (rice [3]; 21 GAI/HA): 5%
